Laboratory results published in the supplement of paper PMC10307832.

Tests used:
Assay in all cases: relative viability (nuclei count vs DMSO), 5 days (fraction); higher = more cells survive
Tozasertib + Trametinib = compound: Cc1cc(Nc2cc(N3CCN(C)CC3)nc(Sc3ccc(NC(=O)C4CC4)cc3)n2)n[nH]1 [Tozasertib] + CC(=O)Nc1cccc(-n2c(=O)n(C3CC3)c(=O)c3c(Nc4ccc(I)cc4F)n(C)c(=O)c(C)c32)c1 [Trametinib] (partner 0.02 µM)
How it was run: (§1)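 Relative viability is defined as nuclei in treated wells over nuclei in vehicle wells. Duplicate plates were run and medians reported. Lung cancer cell lines in 1536-well plates were dosed by pin tool one day after seeding, with one drug or with a fixed anchor-drug dose plus five library-drug doses (not always all listed) in √10 steps, and nuclei were counted after 5 days.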

Tozasertib + Palbociclib = compound: Cc1cc(Nc2cc(N3CCN(C)CC3)nc(Sc3ccc(NC(=O)C4CC4)cc3)n2)n[nH]1 [Tozasertib] + CC(=O)c1c(C)c2cnc(Nc3ccc(N4CCNCC4)cn3)nc2n(C2CCCC2)c1=O [Palbociclib] (partner 0.5 µM)
How it was run: as §1

Tozasertib + Crizotinib = compound: Cc1cc(Nc2cc(N3CCN(C)CC3)nc(Sc3ccc(NC(=O)C4CC4)cc3)n2)n[nH]1 [Tozasertib] + C[C@@H](Oc1cc(-c2cnn(C3CCNCC3)c2)cnc1N)c1c(Cl)ccc(F)c1Cl [Crizotinib] (partner 1 µM)
How it was run: as §1

Tozasertib + Decitabine = compound: Cc1cc(Nc2cc(N3CCN(C)CC3)nc(Sc3ccc(NC(=O)C4CC4)cc3)n2)n[nH]1 [Tozasertib] + Nc1ncn([C@H]2C[C@H](O)[C@@H](CO)O2)c(=O)n1 [Decitabine] (partner 2 µM)
How it was run: as §1

Tozasertib + Vorinostat = compound: Cc1cc(Nc2cc(N3CCN(C)CC3)nc(Sc3ccc(NC(=O)C4CC4)cc3)n2)n[nH]1 [Tozasertib] + O=C(CCCCCCC(=O)Nc1ccccc1)NO [Vorinostat] (partner 1 µM)
How it was run: as §1

Row | Cell Line | relative viability (Tozasertib + Trametinib; first compound 0.004 µM) | relative viability (Tozasertib + Trametinib; first compound 0.01265 µM) | relative viability (Tozasertib + Trametinib; first compound 0.04 µM) | relative viability (Tozasertib + Trametinib; first compound 0.1265 µM) | relative viability (Tozasertib + Palbociclib; first compound 0.004 µM) | relative viability (Tozasertib + Palbociclib; first compound 0.01265 µM) | relative viability (Tozasertib + Palbociclib; first compound 0.04 µM) | relative viability (Tozasertib + Palbociclib; first compound 0.1265 µM) | relative viability (Tozasertib + Crizotinib; first compound 0.01265 µM) | relative viability (Tozasertib + Crizotinib; first compound 0.04 µM) | relative viability (Tozasertib + Crizotinib; first compound 0.1265 µM) | relative viability (Tozasertib + Decitabine; first compound 0.004 µM) | relative viability (Tozasertib + Decitabine; first compound 0.01265 µM) | relative viability (Tozasertib + Decitabine; first compound 0.04 µM) | relative viability (Tozasertib + Decitabine; first compound 0.1265 µM) | relative viability (Tozasertib + Vorinostat; first compound 0.004 µM) | relative viability (Tozasertib + Vorinostat; first compound 0.01265 µM) | relative viability (Tozasertib + Vorinostat; first compound 0.04 µM) | relative viability (Tozasertib + Vorinostat; first compound 0.1265 µM) | relative viability (Tozasertib + Crizotinib; first compound 0.004 µM)
1 | HCC-366 | 0.304 | 0.323 | 0.385 | 0.15 | 0.4 | 0.391 | 0.502 | 0.227 | 0.472 | 0.257 | 0.039 | 0.32 | 0.314 | 0.314 | 0.169 | 0.371 | 0.3 | 0.198 | 0.0431 | 
2 | HCC-827 | 0.493 | 0.481 | 0.663 | 0.512 | 0.511 | 0.516 | 0.603 | 0.493 | 0.82 | 0.927 | 0.719 | 0.207 | 0.283 | 0.305 | 0.264 | 0.87 | 0.835 | 0.89 | 0.584 | 1.02
3 | HOP-62 | 0.356 | 0.401 | 0.401 | 0.372 | 0.53 | 0.483 | 0.556 | 0.439 | 0.964 | 0.941 | 0.776 | 0.213 | 0.234 | 0.194 | 0.196 | 0.621 | 0.483 | 0.628 | 0.462 | 1.03
4 | LC-2-ad | 0.942 | 0.816 | 0.934 | 0.743 | 0.503 | 0.529 | 0.442 | 0.477 | 0.452 | 0.405 | 0.369 | 0.87 | 0.792 | 0.798 |  | 0.762 | 0.631 | 0.613 | 0.272 | 0.441
5 | LCLC-97TM1 | 0.211 | 0.22 | 0.239 | 0.17 | 0.232 | 0.223 | 0.222 | 0.21 | 0.288 | 0.257 | 0.189 | 0.222 | 0.232 | 0.235 | 0.185 | 0.69 | 0.639 | 0.644 | 0.153 | 
6 | LCLC-103H | 0.659 | 0.71 | 0.675 |  | 0.481 | 0.45 | 0.502 | 0.52 | 1.05 | 1.1 | 1.07 | 0.689 | 0.621 | 0.775 | 0.683 | 0.842 | 0.863 | 0.743 | 0.544 | 0.993
7 | LK-2 | 0.859 | 0.646 | 0.739 | 0.353 | 0.736 | 0.782 | 0.887 | 0.378 |  | 0.239 | 0.244 | 0.428 | 0.291 | 0.363 | 0.141 | 0.287 | 0.321 | 0.28 | 0.197 | 0.19
8 | LOU-NH91 | 0.692 | 0.811 | 0.838 | 0.793 | 0.526 | 0.536 | 0.512 | 0.529 | 0.703 | 0.754 | 0.722 | 0.681 | 0.791 | 0.812 | 0.762 | 0.761 | 0.889 | 0.983 | 0.707 | 0.619
9 | LU99A | 0.545 | 0.504 | 0.494 | 0.373 | 0.423 | 0.386 | 0.369 | 0.324 | 0.514 | 0.466 | 0.27 | 0.968 | 0.859 | 0.785 | 0.504 | 0.544 | 0.423 | 0.428 | 0.339 | 0.627
10 | LXF-289 | 0.69 | 0.625 | 0.685 | 0.571 | 0.63 | 0.6 | 0.561 | 0.583 | 0.758 | 0.717 | 0.161 | 0.378 | 0.405 | 0.337 | 0.262 | 0.731 | 0.702 | 0.533 | 0.252 | 
11 | NCI-H522 | 0.825 |  | 0.671 | 0.711 | 1.03 | 1.02 | 1.06 | 0.749 |  |  |  | 0.655 | 0.746 | 0.647 | 0.622 | 0.917 | 1.14 | 0.759 | 0.782 | 
12 | NCI-H596 | 0.992 | 0.877 | 0.826 | 0.622 |  |  |  |  | 0.949 | 1.01 | 0.79 | 0.984 | 0.948 | 0.853 | 0.888 | 0.655 | 0.538 | 0.72 | 0.451 | 1.09
13 | NCI-H1395 | 1.1 | 0.972 | 1.07 | 0.638 | 0.613 | 0.612 | 0.632 | 0.56 |  |  |  | 0.724 | 0.674 | 0.673 | 0.524 | 0.944 | 0.641 | 0.643 | 0.353 | 
14 | NCI-H1703 |  |  |  |  |  |  |  |  | 0.848 | 0.318 | 0.24 |  |  |  |  |  |  |  |  | 1.58
15 | NCI-H1792 | 0.481 | 0.412 | 0.754 | 0.35 | 0.731 | 0.594 | 0.758 | 0.61 | 0.9 | 1.16 | 0.913 | 0.601 | 0.534 | 0.482 | 0.505 |  |  |  |  | 0.951
16 | NCI-H1793 | 0.442 | 0.385 | 0.415 | 0.328 | 0.307 | 0.312 | 0.367 | 0.295 |  |  |  | 0.555 | 0.495 | 0.508 | 0.397 | 0.785 | 0.654 | 0.931 | 0.267 | 
17 | NCI-H2228 | 0.485 | 0.503 | 0.513 | 0.345 | 0.994 | 0.764 | 0.671 | 0.453 |  | 0.452 | 0.186 |  |  |  |  | 0.668 | 0.402 | 0.585 | 0.49 | 0.487
18 | NCI-H2342 | 0.77 | 0.969 | 0.849 | 0.897 | 0.491 | 0.511 | 0.476 | 0.531 |  |  |  | 0.678 | 0.738 | 0.723 | 0.766 | 0.77 | 0.78 | 0.782 | 0.597 | 
19 | SW 900 | 0.653 | 0.798 | 0.911 | 0.509 | 0.62 | 0.536 | 0.542 | 0.382 |  |  |  | 0.43 | 0.442 | 0.347 | 0.375 | 0.579 | 0.436 |  | 0.266 | 
